Data reported in patent US9468208B2, “Disease control with tick phospholipase A2” (The United States of America, as represented by the …, priority 2009, dated 2016).

Tests used:
[1] = test system: B31 B. burgdorferi isolates; experiment: B. burgdorferi viability, live/dead BacLight staining counts; type: cell-based, Borrelia burgdorferi; settings: 35° C., BSK-H, starting 155 live spirochetes per field
Method: Evaluation of PLA2 protein regulation of B. burgdorferi viability. Analyses of PLA2 protein is performed essentially as described by Ledin, K. E., et al., Med. Vet. Entomol., 2005; 19(1):90-95, the contents of which are incorporated herein by reference. Frozen stocks of low-passage B31 B. burgdorferi isolates (Shelter Island, N.Y.) are reconstituted in BSK-H culture medium and maintained at 35° C. to log phase (Piesman, 1993). Spirochete cultures are diluted with BSK-H to a density of 4.7×10^7 viable spirochetes per mL as counted in a Petroff-Hauser chamber under dark-field microscopy, and distributed in 15 μL aliquots into 0.7 mL tubes for a total of 7.05×10^5 spirochetes per tube. A mean starting concentration of 155 live spirochetes per field is assessed prior to the addition of specific treatments. Each 15 μL aliquot of spirochetes in BSK-His treated with either 15 μL of sterile PBS, 15 μL of 1.33 mg/mL pilocarpine (based on the mid-range of pilocarpine found in previous analysis of tick saliva, (Ribeiro et al., 2004) in sterile PBS, or 15 μL of tick saliva, and incubated at 35° C. 10 μL samples taken from each of 10 prepared cultures and assessed for spirochete survival at 0, 24 and 48 h. Time points for spirochete survival assessment are chosen based on previous observations of post-feeding decreases in spirochete-positive ticks (Ryder et al., 1992). […]

B. burgdorferi = experiment: Borreliacidal assay of saliva alone versus saliva plus phospholipase A2 inhibitor OPC; type: cell-based, Borrelia burgdorferi; settings: 24 hrs, A. americanum saliva plus OPC 5-40 μM; culture controls 79
Method: Gel filtration fractionation of A. americanum saliva produces individual fractions with borreliacidal activity. Saliva is fractionated into 11 molecular weight pools by gel filtration and then tested by a borreliacidal assay as described by Zeidner, et al. 2009. Briefly, A. americanum saliva is size fractionated on a Superdex 200 column run with 25 mM NaCl dissolved in 5 mM HEPES (pH 7.6) at a flow rate of 0.5 ml per minute. The separation is monitored at […]. Fractions are collected at 1 minute intervals into siliconized eppendorf tubes. Each collected fraction is subsequently concentrated to 100 μl using a SpeedVac. 50 μl aliquots of the fractions are pooled according to the major molecular weight peaks at between 2 and 10 fractions per pool. Each pool is subsequently concentrated to 50 μl using Micron-3K filters (Millipore, Billerica, Mass.).
Inhibition of A. americanum borreliacidal activity using oleyloxyethyl phosphorylcholine (OPC) identifies phospholipase A2 as an active component of A. americanum saliva. The borreliacidal assay of Example 6 is performed comparing saliva alone with saliva plus the phospholipase A2 inhibitor OPC. […]

| Compound | average number of live spirochetes (mean) ([1]; 24 h post-exposure) | average number of live spirochetes (mean) ([1]; 48 h post-exposure) | percent control live spirochetes (B. burgdorferi) |
| --- | --- | --- | --- |
| CC[C@@H]1C(=O)OC[C@@H]1Cc1cncn1C [pilocarpine] | 82.1 counts per 10 high powered (10 | 58.2 counts per 10 high powered (10 | – |
| CCCCCCCC/C=C\CCCCCCCCOCCOP(=O)([O-])OCC[N+](C)(C)C [OPC, oleyloxyethyl phosphorylcholine] | – | – | 76-78% |
